Drawing on a melting point compilation (Tetko et al.), this text covers melting point for 111 compounds.

The term melting point denotes the temperature, or range, at which the solid turns liquid.

As for `Clc1c(Cl)c(Cl)c2c(oc3c(Cl)c(Cl)c(Cl)c(Cl)c32)c1Cl`, the melting point worked out at 258 °C. The compound `CCOC(=O)/C(C(N)=S)=C1/NN=C(c2ccccc2O)O1` came in with a melting point of 128 °C.

As for `CC(=O)C1CC(CC(=O)O)C1(C)C` (stereo unspecified), the melting point fell in the range of 104 to 107 °C. Then `OCc1cccc(CN2CCCCC2)c1`, with 67 to 69 °C.

Take `COc1cccc(C=C[N+](=O)[O-])c1OC`: the melting point lay within 83 to 85 °C.

`COc1ccc(-c2nn3c(COc4ccccc4)nnc3s2)cc1OC` yielded a melting point of 106 °C. The result for `COc1ccc(C[C@H](N)C(=O)O)cc1` reads 259 to 261 °C. Then `COc1cc(OC)c([N+](=O)[O-])c(OC)c1`, with 152 °C. The result for `Cc1noc(-c2ccccc2C(=O)O)n1` reads 152 to 153 °C; that for `CC(C)C1CCCCC1`, -89.4 °C. In the case of `CN(C)CCOCCN(C)C`, the melting point is -80 °C.

Regarding `CCOP(=S)(OCC)SCSC(C)(C)C`, the melting point is -29.2 °C. The result for `CSc1ccc(C(=O)O)s1` reads 103 to 105 °C. Then `CCOC(=O)C(C(=O)OCC)C(Br)c1cc(C(Br)C(C(=O)OCC)C(=O)OCC)c([N+](=O)[O-])cc1[N+](=O)[O-]` (stereo unspecified), with 130 °C; and `Cc1ccc(I)cc1F`, with 23 °C; and `Cc1cc(C)c([N+](=O)[O-])c(C)c1Br`, with 64 to 66 °C.

`CC(Cl)C(C)(C)C` (stereo unspecified) had a melting point of -1 °C. As to `CCCOc1ccc(O)cc1`, the melting point was found to be 56.5 °C. Then `Nc1c(C=Cc2ccccc2)ccc2c1C(=O)c1ccccc1C2=O`, with 214 °C. Then `Cc1ccccc1Oc1cccnn1`, with 78 °C; and `O=C(O)CS(=O)(=O)CC(=O)O`, with 182 °C; and `CC(=O)C1(O)C(O)CC2C3CCC4=CC(=O)CCC4(C)C3CCC21C` (stereo unspecified), with 225 °C.

With `O=C(/C=C/OC(=O)c1ccccc1)CCc1ccccc1`, the melting point was 99 to 100 °C. Then `ClC(Cl)C(Cl)C(Cl)Cl`, with -10 °C.

On to `CC(Cl)(Cl)C(=O)OCCOc1cc(Cl)c(Cl)cc1Cl`, for which the melting point amounted to 49.5 °C. `O=Cc1cn(Cc2ccccc2)c2ccccc12`: the melting point lay in the range of 108 to 110 °C. Then `N#Cc1ccsc1N`, with 103 to 106 °C. Take `COc1cc2c(cc1OC)C1CC(=O)C(CC(C)C)CN1CC2` (stereo unspecified): the melting point turned out to be 128 °C. Then `O=C(O)c1ccc(N2C(=O)C3C(C(=O)c4ccc(Cl)cc4)=NN(c4ccccc4)C3C2=O)cc1` (stereo unspecified), with 285 °C; and `CC1(C)OCC2OC3(C(=O)O)OC(C)(C)OC3C2O1` (stereo unspecified), with 92 °C.

In turn, `Cc1nc(-c2ccccc2)sc1C(=O)CBr` had a melting point of 117 to 118 °C. The compound `CCN(CC)C(=O)c1[nH]c(C)c(C)c1C` gave a melting point of 113 to 115 °C. The result for `C=CC(N)CCC(=O)O` (stereo unspecified) reads 209 °C.

`O=C(O)c1cccc(N2CCOCC2)n1` registered a melting point of 127 to 129 °C. Then `OCCC(F)(F)C(F)(F)C(F)(F)C(F)(F)C(F)(F)C(F)(F)F`, with -35 °C; and `CNC(=O)Oc1ccc(N(C)C)c(C)c1`, with 93.9 °C. The result for `CCC(C)OC(=O)C1=C2c3ncccc3ON2C(Cl)C(Cl)C1Cl` (stereo unspecified) reads 97 °C. The result for `CCOCCc1ccc(OCCNc2ncnc(CC)c2Cl)c(C)c1C` reads 70 °C; that for `COc1ccc(-c2ccc(S(=O)(=O)NCCC(=O)O)cc2)cc1`, 190 °C. For the compound `Cn1c(=O)c(C2=NNC(=O)C2=NNc2ccccc2)c(O)c2ccccc21`, the melting point worked out at 213 °C. Then `CC1(C)C(=S)NC(c2ccccc2)N1O` (stereo unspecified), with 193 to 195 °C; and `COC(=O)c1sc(SC)c(C#N)c1N`, with 207 °C; and `Clc1ccc2cccc(Cl)c2c1`, with 63.5 °C. Then `CC1(C)C2CC3C(C2)C31C`, with 67.5 °C; and `COc1ccccc1-c1nnc2n1NC(c1ccc([N+](=O)[O-])cc1)S2` (stereo unspecified), with 196 °C; and `N#CC(C#N)=C(CC=O)c1ccc(Cl)cc1`, with 100 °C. Consider `O=C(CCl)Nc1ccc(F)cc1F`, for which the melting point was 79 to 81 °C.

In turn, `COc1cc2c(cc1O)C=NCC2` came in with a melting point of 187 to 191 °C. Then `CC(=NO)C(C)(C)O`, with 85 °C. As to `CC(=O)CS(C)(=O)=O`, the melting point was determined as 54 °C. Then `O=C1/C(=N\Nc2ccccc2)C(c2ccc([N+](=O)[O-])cc2)=NN1c1ccccc1`, with 239 to 240 °C; and `Cc1cc(S(=O)(=O)Cl)c(C)cc1Cl`, with 49 °C.

Regarding `CC(NC(=O)OCc1ccccc1)C(=O)O` (racemic), the melting point fell in the range of 112 to 113 °C. The result for `Cc1ccc(C)c(O)c1C` reads 58 °C. The result for `CS(=O)(=O)c1ccc(C#N)cc1` reads 137 to 142 °C; that for `CCOC(=O)[C@H]1CCC(=O)N1`, 49 to 53 °C.

As for `Cc1nc(CO)c(C)o1`, the melting point stood at 73 °C.

In turn, `CCOC(=O)c1cc2c(N)c(C(=O)OCC)sc2nc1C(F)(F)F` came in with a melting point of 181 to 183 °C. On to `COC(=O)c1cc(C)nn1C(=O)OC`, for which the melting point is 111 to 112 °C.

The compound `O=Cc1ccnc(Cl)c1` came in with a melting point of 47.5 °C. Consider `CCSC(SCC)=C(C#N)c1ccccn1`, for which the melting point fell in the range of 160 to 162 °C. Then `CCOc1ccc(C(N)=O)cc1`, with 209 °C; and `c1ccc2nc(-c3cc(-c4cnc5ccccc5n4)cc(-c4cnc5ccccc5n4)c3)cnc2c1`, with 302 °C; and `C[C@H]([C@@H](O)c1ccccc1)N1CCCC1`, with 45 °C. The result for `CCOC(=O)C1=C(CBr)NC(C)=C(C(=O)OC)C1c1cccc([N+](=O)[O-])c1` (stereo unspecified) reads 106 °C.

Turning to `Cn1cc(Br)c(-c2cccc(N)c2)n1`, the melting point was in the range of 95 to 97 °C.

`CCOc1ccc(-c2ccc(OCC)cc2)cc1` gave a melting point of 174 °C. As to `O=C1CC(c2ccccc2)=NO1`, the melting point was 150 to 154 °C. Then `CC(C)(C)C(CO)CO`, with 55 °C. Compound `COc1ccc(C=C(Oc2ccc(Cl)cc2)c2nc3ccccc3s2)cc1` showed a melting point of 137 to 139 °C.

Compound `ON=C(c1ccccc1)c1ccc(O)cc1` had a melting point of 78 °C. Then `CC(=O)OC1CC[C@H]2[C@@H]3[C@H](C)CC4CC(=O)CC[C@]4(C)[C@H]3CC[C@]12C` (stereo partly specified), with 142 °C; and `ClCc1c(Cl)cccc1Cl`, with 38 °C. Then `CC(C)=C1OC(=O)C1(C)C`, with -18 °C; and `Cc1[nH]c2ccc([N+](=O)[O-])cc2c1C`, with 189 °C; and `FC(F)(F)c1cc(Cl)c2cc(Br)ccc2n1`, with 98 to 100 °C. The result for `Oc1ccc(C2CCCC2)cc1` reads 65 °C. In turn, `O=C(O)c1ccc2c(c1)OCCCO2` showed a melting point of 143 to 146 °C. The result for `CC(=NO)c1ccccn1` reads 117 to 119 °C; that for `O=C(Nc1ccc(F)cc1F)c1cccnc1Oc1cccc(C(F)(F)F)c1`, 160 °C. Then `CCOC(=O)c1cc2cccnc2s1`, with 59 to 60 °C; and `O=C1C(=Cc2ccccc2)N=C(N2CCOCC2)N1c1ccccc1`, with 235 °C; and `COc1cc(C=C(C)[N+](=O)[O-])cc(OC)c1`, with 87 to 89 °C. Then `CCOC(=O)c1c(SC)nn2c(=O)n(Nc3ccccc3)cnc12`, with 118 to 122 °C; and `CC1=CCC(O)(C(C)C)CC1` (stereo unspecified), with 14.7 °C; and `Nc1snnc1-c1ccc(C(F)(F)F)cc1`, with 125 to 128 °C. Take `CCC(c1ccc(O)c(C)c1)C(CC)c1ccc(O)c(C)c1` (stereo unspecified): the melting point was determined as 145 °C. The result for `O=C(CBr)c1cc(Br)cc2c1OCC2` reads 132 to 134 °C; that for `CCOC(=O)c1sc2nc(C)cc(C)c2c1N`, 157 to 158 °C; that for `CC(=O)N[C@@H](Cc1ccccc1)C(=O)N[C@@H](Cc1cc(I)c(O)c(I)c1)C(=O)O`, 219 to 221 °C. Turning to `CN(C)S(F)(F)F`, the melting point was -78.7 °C. The result for `CC1CCCC1=O` (stereo unspecified) reads -75 °C; that for `Cc1cc(Cl)cc(Cl)c1CN`, 54 °C; that for `FC(F)(F)c1nnc(S)n1/N=C/c1ccccc1`, 233 °C. Then `CC(C)(C)C(O)C(=Cc1ccc(Cl)cc1)n1cncn1` (stereo unspecified), with 153 °C; and `CC1(C)CC(=O)C2=C(C1)Nc1ccc3ccccc3c1C2c1ccc(Cl)cc1Cl` (stereo unspecified), with 348 °C; and `Cc1cc(C)c(Br)c(C)c1Br`, with 65.5 °C. The result for `Clc1ccc2c(Cl)ccnc2c1` reads 93 °C; that for `COC(=O)C1=C(C)NC(=S)NC1c1ccccc1` (stereo unspecified), 224 to 225 °C. For the compound `O=C(/C=C/O)CCc1ccccc1`, the melting point came out at 150 °C. In the case of `O=C(O)CC(C(=O)O)C(CC(=O)O)C(=O)O` (stereo unspecified), the melting point lay within 195 to 197 °C. The result for `NS(=O)(=O)c1ccc(CCCCCO)cc1` reads 86 °C; that for `CCC1C(=O)OCC1Cc1cncn1C` (stereo unspecified), 34 °C. In turn, `COC(=O)c1nc(Cl)c(Cl)nc1N` displayed a melting point of 232 °C. The result for `CCOC(=O)c1nn(-c2ccc(C)cc2)c(C)c1C(=O)c1noc(-c2cccc3ccccc23)c1S(=O)(=O)c1ccccc1` reads 173 °C; that for `Cc1cccc2c1CC(C(=O)O)N(C(=O)OC(C)(C)C)C2` (racemic), 142 to 144 °C; that for `NC(CC(=O)O)C(F)(F)F` (stereo unspecified), 185 to 190 °C. Then `CCCCCOC(=O)CC`, with -73.1 °C; and `O=[N+]([O-])c1ccc(-c2nnc3n2NC(c2ccccc2)S3)cc1` (stereo unspecified), with 220 °C.

As for `O=C1CCCN1c1ccc(Cl)cc1`, the melting point was 95 to 98 °C. The result for `O=S1(=O)Cc2ccccc2C1` reads 151 to 152 °C.
